Reference: US4689346A, “Therapeutic 1-(acylamino)-naphthalene-4-sulphonic acid derivatives” (Laboratorio Fides, S.A., priority 1982, dated 1987)
Like-named read-outs stand apart in the source and are kept apart here.

How the values were obtained:
[1] = tested on: fibrin plates; assay: Antifibrinolytic activity in vitro by means of fibrin plates, modified and standardized method of Astrup and Mullertz; assay type: biochemical; conditions: AMCHA as standard (= 1)
Description: The antifibrinolytic activity is evaluated "in vitro" by means of fibrin plates according to the modified and standardized method of Astrup and Mullertz.
The antifibrinolytic activity of the test solution is calculated by interpolating the lysis response in a dose/response curve obtained with reference solutions (graduated dilutions of a standard enzyme). AMCHA was used as a standard antifibrinolytic compound.

[2] = tested on: vascular permeability produced by histamine; assay: Capillary permeability, Lefebre's method (vascular permeability produced by histamine in rats); assay type: in vivo; conditions: 0.100 g/kg, subcutaneous
Description: The effect on the capillary permeability is determined by means of Lefebre's method, which is based on measuring, at the time of appearance of a coloration, the vascular permeability produced by histamine in rats that have been injected with the product under investigation. Ethamsylate is used as a standard, and the results obtained are as follows: […]

[3] = tested on: capillary resistance; assay: Capillary resistance, modified technique based on that of Lavollay (time to first central petechiae under vacuum, scorbutic diet); assay type: in vivo; conditions: 0.175 g/kg, oral, guinea-pigs, four weeks
Description: The effect on the capillary resistance is determined by means of a modified technique based on that of Lavollay. An increasingly powerful vacuum is applied to the skin, and the time that elapses before the first central petechiae appear is taken as a measure of the capillary resistance. Three batches of guinea-pigs are used for each product tested, one batch being a normal batch and the two other batches being subjected to a scorbutic diet, one of the latter batches having received the product under investigation from the start of the trial. An initial basal reading and other weekly readings are taken for four weeks. Ethamsylate is used as a standard.

[4] = tested on: mean bleeding (clotting) time measured in a rabbit ear; assay: Hemostatic activity: mean bleeding (clotting) time in a rabbit ear, technique of Roskam and Pauwen; assay type: in vivo; conditions: i.v.
Description: The hemostatic activity is determined by means of a quantitative study of the mean bleeding (clotting) time measured in a rabbit ear by the technique described by Roskam and Pauwen.
Ethamsylate was used as a standard, and the results obtained were as follows: […]

[5] = tested on: mice; assay: Acute toxicity, LD50 in mice; assay type: in vivo; conditions: for Acute toxicity, LD50, I.v. route: i.v. (endovenous)
Description: (§1) The LD50 in mice is determined for the endovenous, intraperitoneal and oral routes.

[6] = Acute toxicity, LD50 in mice; assay type: in vivo; conditions: mouse, in vivo
Description: as §1

CC(=O)Oc1cc(S(=O)(=O)O)c2ccccc2c1N(C(C)=O)C(C)=O [Example 2, morpholine N,N,O-triacetyl-1-amino-2-naphthol-4-sulphonate]
Antifibrinolytic activity, Relative capacity [1]: 1.67
Antifibrinolytic activity, Weight capacity [1]: 0.59
Capillary permeability, % Effect [2]: 29%
Capillary resistance, % Effect [3]: 23.95%
Hemostatic activity, % Effect ([4]; 10 mg/kg): 24.7%
Hemostatic activity, % Effect ([4]; 100 mg/kg): 13%
Acute toxicity, LD50, I.p. route [5]: 4.04 g/kg
Acute toxicity, LD50, I.v. route [5]: 1.53 g/kg
Acute toxicity, LD50, Oral route [5]: > 7 g/kg

CC(=O)Oc1cc(S(=O)(=O)O)c2ccccc2c1N(C(C)=O)C(C)=O [Example 4, sodium N,N,O-triacetyl-1-amino-2-naphthol-4-sulphonate]
Antifibrinolytic activity, Relative capacity [1]: 2.61
Antifibrinolytic activity, Weight capacity [1]: 1.21
Capillary resistance, % Effect [3]: 17.9%
Hemostatic activity, % Effect ([4]; 10 mg/kg): 29.7%
Hemostatic activity, % Effect ([4]; 100 mg/kg): 29.8%
Acute toxicity, LD50, I.p. route [5]: 5.26 g/kg
Acute toxicity, LD50, I.v. route [5]: 3.51 g/kg
Acute toxicity, LD50, Oral route [5]: > 7 g/kg

NC[C@H]1CC[C@H](C(=O)O)CC1 [AMCHA, trans-4-(aminomethyl)-cyclohexanecarboxylic acid, reference compound]
Antifibrinolytic activity, Weight capacity [1]: 1
Capillary permeability, % Effect [2]: -2%
Capillary resistance, % Effect [3]: 20.08%
Hemostatic activity, % Effect ([4]; 10 mg/kg): 22.5%
Hemostatic activity, % Effect ([4]; 100 mg/kg): 26.5%

CC(=O)Oc1cc(S(=O)(=O)O)c2ccccc2c1N(C(C)=O)C(C)=O [Example 11, AMCHA N,N,O-triacetyl-1-amino-2-naphthol-4-sulphonate]
Antifibrinolytic activity, Relative capacity [1]: 3.36
Antifibrinolytic activity, Weight capacity [1]: 1.19
Capillary permeability, % Effect [2]: 14%
Capillary resistance, % Effect [3]: 22.6%
Hemostatic activity, % Effect ([4]; 10 mg/kg): 20%
Hemostatic activity, % Effect ([4]; 100 mg/kg): 32%

O=S(=O)(O)c1cc(O)ccc1O [Ethamsylate, reference compound]
Antifibrinolytic activity, Relative capacity [1]: 0.47
Antifibrinolytic activity, Weight capacity [1]: 0.28
Capillary permeability, % Effect [2]: 26.33%
Capillary resistance, % Effect [3]: 14.18%
Hemostatic activity, % Effect ([4]; 10 mg/kg): 22.11%
LD50 ([6]; iv, i.v. (endovenous), read-out: Acute toxicity, LD50, I.v. route): 800 mg/kg

CC(=O)Oc1cc(S(=O)(=O)O)c2ccccc2c1N(C(C)=O)C(C)=O [Example 1, potassium N,N,O-triacetyl-1-amino-2-naphthol-4-sulphonate]
Antifibrinolytic activity, Relative capacity [1]: 2.06
Antifibrinolytic activity, Weight capacity [1]: 0.91
Capillary permeability, % Effect [2]: 19%
Capillary resistance, % Effect [3]: 23.6%
Hemostatic activity, % Effect ([4]; 10 mg/kg): 18.2%
Hemostatic activity, % Effect ([4]; 100 mg/kg): 23%
Acute toxicity, LD50, I.v. route [5]: 0.653 g/kg
LD50 ([6]; ip, read-out: Acute toxicity, LD50, I.p. route): 3560 mg/kg
LD50 ([6]; po, read-out: Acute toxicity, LD50, Oral route): > 7000 mg/kg

CC(=O)Nc1c(OC(C)=O)cc(S(=O)(=O)O)c2ccccc12 [Example 5, sodium N,O-diacetyl-1-amino-2-naphthol-4-sulphonate]
Antifibrinolytic activity, Relative capacity [1]: 1.19
Antifibrinolytic activity, Weight capacity [1]: 0.55
Capillary resistance, % Effect [3]: 26%
Hemostatic activity, % Effect ([4]; 25 mg/kg): 10.6%
